Test results published in patent publication US8906904B2, “Alkoxy pyrazoles as soluble guanylate cyclase activators” (Boehringer Ingelheim International GmbH, priority 2012, dated 2014).

What follows are compounds tested against T1, human soluble guanylate cyclase alpha 1 and beta 1 subunits (sGC) (Homo sapiens, UniProt Q02108+Q02153) (assay: sGC cellular activator assay (cGMP, HTRF)). Conditions: CHO cells stably expressing human sGC alpha 1/beta 1, preincubated with 40 microM ODQ; cGMP readout; assay run with and without 50% human serum, Table 2 does not say which.
T1 construct: expressed in transfected cells; host or cells: Chinese hamster ovary (CHO) cells, stably transfected
T1 sequence (Q02108 1-690): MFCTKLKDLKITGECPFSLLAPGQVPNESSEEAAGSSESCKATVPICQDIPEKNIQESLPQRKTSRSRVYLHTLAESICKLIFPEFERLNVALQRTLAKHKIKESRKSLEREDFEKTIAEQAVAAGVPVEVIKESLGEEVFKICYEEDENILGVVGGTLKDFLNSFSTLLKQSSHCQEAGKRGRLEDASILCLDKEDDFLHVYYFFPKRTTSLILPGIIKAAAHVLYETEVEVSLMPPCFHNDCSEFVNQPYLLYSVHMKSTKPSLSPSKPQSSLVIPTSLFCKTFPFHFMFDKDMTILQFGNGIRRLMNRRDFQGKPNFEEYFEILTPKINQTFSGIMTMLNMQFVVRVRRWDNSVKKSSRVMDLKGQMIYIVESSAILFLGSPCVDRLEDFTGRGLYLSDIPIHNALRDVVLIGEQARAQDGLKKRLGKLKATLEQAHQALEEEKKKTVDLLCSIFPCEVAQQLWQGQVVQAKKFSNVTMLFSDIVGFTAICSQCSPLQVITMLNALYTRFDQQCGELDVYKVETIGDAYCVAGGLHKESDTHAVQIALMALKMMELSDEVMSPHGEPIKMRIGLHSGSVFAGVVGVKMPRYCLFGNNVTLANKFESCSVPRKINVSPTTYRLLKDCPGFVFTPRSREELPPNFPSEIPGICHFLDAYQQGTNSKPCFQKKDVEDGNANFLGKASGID
T1 sequence (Q02153 1-619): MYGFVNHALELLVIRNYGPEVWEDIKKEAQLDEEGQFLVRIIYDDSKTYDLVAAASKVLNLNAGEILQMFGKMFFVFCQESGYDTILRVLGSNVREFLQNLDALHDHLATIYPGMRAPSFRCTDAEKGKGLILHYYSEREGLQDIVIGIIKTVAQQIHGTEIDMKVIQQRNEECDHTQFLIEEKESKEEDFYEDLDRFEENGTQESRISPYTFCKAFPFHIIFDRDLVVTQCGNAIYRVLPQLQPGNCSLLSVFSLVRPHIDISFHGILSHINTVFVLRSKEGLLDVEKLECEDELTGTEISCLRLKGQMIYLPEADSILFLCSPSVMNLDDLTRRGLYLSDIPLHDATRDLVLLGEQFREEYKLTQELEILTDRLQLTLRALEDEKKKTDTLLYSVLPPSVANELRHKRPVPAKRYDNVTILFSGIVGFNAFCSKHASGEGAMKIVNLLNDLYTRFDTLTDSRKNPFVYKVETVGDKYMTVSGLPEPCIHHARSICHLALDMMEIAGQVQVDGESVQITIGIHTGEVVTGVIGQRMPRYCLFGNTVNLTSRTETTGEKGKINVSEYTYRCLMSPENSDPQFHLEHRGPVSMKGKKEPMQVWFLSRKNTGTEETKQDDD
Assay type: cell-based
Experimental: The sGC cellular activator assay is performed in the presence and absence of 50% human serum (HS) using Chinese hamster ovary cells that have been stably transfected to express the human soluble guanylate cyclase alpha 1 and beta 1 subunits (sGC). Cells are preincubated with 40 microM 1H-[1,2,4]oxadiazolo[4,3-a]quinoxalin-1-one (ODQ), an sGC inhibitor, for one h in buffer containing 0.1% bovine serum albumin and 3-isobutyl-1-methylxanthine (IBMX). Concentration response curves are prepared for test compounds in DMSO. An intermediate dilution of the compounds is performed in either buffer containing IBMX or type AB HS containing IBMX. Diluted compounds are added to cells and they are incubated at room temperature for thirty min. cGMP is measured using a CisBio homogeneous time resolved fluorescence kit and the EC50 is calculated for each compound.
Representative compounds of the present invention were tested for activity the above assay. Preferred compounds have an EC50 of <1,000 nM in the above assay and more preferred compounds have an EC50<200 nM.

With `COc1c(C(=O)O)cnn1-c1cccc(-c2cccc(Cl)c2OCc2ccc3c(c2)CCN(C2COC2)C3)n1` [Compound 7] as the compound, how does the EC50 read?
The EC50 was 32 nM.

How did the EC50 turn out when `COc1c(C(=O)O)cnn1-c1cccc(-c2cccc(C)c2OCc2ccc3c(c2)CCN(C2COC2)C3)n1` [Compound 8] was run?
Its EC50 is 42 nM.

How did the EC50 turn out when `COc1c(C(=O)O)cnn1-c1cccc(-c2cccc(C(F)(F)F)c2OCc2ccc3c(c2)CCN(C2COC2)C3)n1` [Compound 9] was run?
Its EC50 is 59 nM.

How did the EC50 turn out when `COc1c(C(=O)O)cnn1-c1cccc(-c2cccc(C)c2OCc2ccc3c(c2)C(C)(C)CN(C2COC2)C3)n1` [Compound 10] was run?
The EC50 was 16 nM.

For `COc1c(C(=O)O)cnn1-c1cccc(-c2cccc(C)c2OCc2ccc3c(c2)CCN(CC(F)(F)F)C3)n1` [Compound 11, 5-methoxy-1-(6-{3-methyl-2-[2-(2,2,2-trifluoro-ethyl)-1,2,3,4-tetrahydro-isoquinolin-6-ylmethoxy]-phenyl}-pyridin-2-yl)-1H-pyrazole-4-carboxylic acid], which EC50 is on record?
Its EC50 is 17 nM.

For `COc1c(C(=O)O)cnn1-c1cccc(-c2cccc(C)c2OCc2ccc3c(c2)CCN(CC2(C)COC2)C3)n1` [Compound 12], which EC50 is on record?
Its EC50 is 26 nM.

With `COc1c(C(=O)O)cnn1-c1cccc(-c2cccc(C)c2OCc2ccc3c(c2)CCN(C(C)C)C3)n1` [Compound 13] as the compound, how does the EC50 read?
Its EC50 is 180 nM.

For `COc1c(C(=O)O)cnn1-c1cccc(-c2cccc(C)c2OCc2ccc3c(c2)CCN(CC(C)(C)C)C3)n1` [Compound 14], which EC50 is on record?
The EC50 was 18 nM.

For `CCOc1c(C(=O)O)cnn1-c1cccc(-c2cccc(C)c2OCc2ccc3c(c2)CCN(CC2CC(=O)N(C)C2)C3)n1` (stereo not shown) [Compound 97, 5-ethoxy-1-(6-{3-methyl-2-[2-(1-methyl-5-oxo-pyrrolidin-3-ylmethyl)-1,2,3,4-tetrahydro-isoquinolin-6-ylmethoxy]-phenyl}-pyridin-2-yl)-1H-pyrazole-4-carboxylic acid], which EC50 is on record?
The EC50 was 67 nM.

For `COc1c(C(=O)O)cnn1-c1cccc(-c2ccc(C)cc2OCc2ccc3c(c2)CCN(C2CCOCC2)C3)n1` [Compound 98], which EC50 is on record?
The EC50 was 270 nM.

With `COc1c(C(=O)O)cnn1-c1cccc(-c2ccc(C)cc2OCc2ccc3c(c2C)CCN(C2CCOCC2)C3)n1` [Compound 99] as the compound, how does the EC50 read?
Its EC50 is 160 nM.

`COc1c(C(=O)O)cnn1-c1cccc(-c2cccc(C)c2OCc2ccc3c(c2)CCCN(C2CCOCC2)C3)n1` [Compound 100] was tested. Which EC50 did it give?
Its EC50 is 170 nM.

For `CCOc1c(C(=O)O)cnn1-c1cccc(-c2cccc(C)c2OCc2ccc3c(c2)CCN(CC2CCCO2)C3)n1` (stereo not shown) [Compound 101, 5-ethoxy-1-(6-{3-methyl-2-[2-(tetrahydro-furan-2-ylmethyl)-1,2,3,4-tetrahydro-isoquinolin-6-ylmethoxy]-phenyl}-pyridin-2-yl)-1H-pyrazole-4-carboxylic acid], which EC50 is on record?
Its EC50 is 110 nM.

How did the EC50 turn out when `COc1c(C(=O)O)cnn1-c1cccc(-c2cccc(C)c2OCc2ccc3c(c2)CCN([C@H]2CC[C@]4(CCCO4)CC2)C3)n1` [Compound 102] was run?
Its EC50 is 110 nM.

For `COc1c(C(=O)O)cnn1-c1cccc(-c2cccc(C)c2OCc2ccc3c(c2)CCN([C@H]2CC[C@@]4(CCCO4)CC2)C3)n1` [Compound 103], which EC50 is on record?
The EC50 was 110 nM.

Which EC50 does the source give for `Cc1cccc(-c2cccc(-n3ncc(C(=O)O)c3OC(C)C)n2)c1OCc1ccc2c(c1C)CCN(C1CCOCC1)C2` [Compound 104] here?
Its EC50 is 31 nM.

`COc1c(C(=O)O)cnn1-c1cccc(-c2cccc(C)c2OCc2ccc3c(c2C)CCN([C@H]2CCOC2)C3)n1` [Compound 105] was tested. Which EC50 did it give?
The EC50 was 17 nM.

With `COc1c(C(=O)O)cnn1-c1cccc(-c2cccc(C)c2OCc2ccc3c(c2C)CCN([C@@H]2CCOC2)C3)n1` [Compound 106] as the compound, how does the EC50 read?
The EC50 was 27 nM.

With `CCOc1c(C(=O)O)cnn1-c1cccc(-c2cccc(C)c2OCc2ccc3c(c2)CCN([C@H]2CCOC2)C3)n1` [Compound 110] as the compound, how does the EC50 read?
The EC50 was 45 nM.

How did the EC50 turn out when `Cc1cccc(-c2cccc(-n3ncc(C(=O)O)c3OC(C)C)n2)c1OCc1ccc2c(c1)CCN([C@H]1CCOC1)C2` [Compound 111] was run?
The EC50 was 99 nM.

With `CCOc1c(C(=O)O)cnn1-c1cccc(-c2cccc(C)c2OCc2ccc3c(c2)CCN([C@@H]2CCOC2)C3)n1` [Compound 112] as the compound, how does the EC50 read?
The EC50 was 110 nM.

Which EC50 does the source give for `Cc1cccc(-c2cccc(-n3ncc(C(=O)O)c3OC(C)C)n2)c1OCc1ccc2c(c1)CCN([C@@H]1CCCOC1)C2` [Compound 113] here?
The EC50 was 24 nM.

Which EC50 does the source give for `CCOc1c(C(=O)O)cnn1-c1cccc(-c2cccc(C)c2OCc2ccc3c(c2C)CCN(C2CCOCC2)C3)n1` [Compound 114] here?
Its EC50 is 40 nM.

How did the EC50 turn out when `Cc1cccc(-c2cccc(-n3ncc(C(=O)O)c3OC(C)C)n2)c1OCc1ccc2c(c1)CCN([C@H]1CCCOC1)C2` [Compound 115] was run?
Its EC50 is 68 nM.

Which EC50 does the source give for `Cc1cccc(-c2cccc(-n3ncc(C(=O)O)c3OC(C)C)n2)c1OCc1ccc2c(c1C)CCN([C@H]1CCCOC1)C2` [Compound 117] here?
Its EC50 is 29 nM.

How did the EC50 turn out when `CCOc1c(C(=O)O)cnn1-c1cccc(-c2cccc(C)c2OCc2cc(C)c3c(c2)CN(C2CCOCC2)C3)n1` [Compound 118] was run?
The EC50 was 39 nM.

For `CCOc1c(C(=O)O)cnn1-c1cccc(-c2cccc(C)c2OCc2ccc3c(c2C)CN(C2CCOCC2)C3)n1` [Compound 119], which EC50 is on record?
Its EC50 is 57 nM.

With `COc1c(C(=O)O)cnn1-c1cccc(-c2cccc(C)c2OCc2cc(C)c3c(c2C)CCN(C2CCOCC2)C3)n1` [Compound 120] as the compound, how does the EC50 read?
Its EC50 is 12 nM.

With `COc1c(C(=O)O)cnn1-c1cccc(-c2cccc(C)c2OCc2cc3c(cc2C)CN(C2CCOCC2)CC3)n1` [Compound 121] as the compound, how does the EC50 read?
Its EC50 is 40 nM.

`COc1c(C(=O)O)cnn1-c1cccc(-c2cc(C)ccc2OCc2ccc3c(c2C)CCN(C2CCOCC2)C3)n1` [Compound 124] was tested. Which EC50 did it give?
Its EC50 is 47 nM.

`CCOc1c(C(=O)O)cnn1-c1cccc(-c2cccc(C)c2OCc2ccc3c(c2C)CCN([C@H]2CCOC2)C3)n1` [Compound 125] was tested. Which EC50 did it give?
Its EC50 is 27 nM.

Which EC50 does the source give for `CCOc1c(C(=O)O)cnn1-c1cccc(-c2cccc(C)c2OCc2ccc3c(c2C)CCN([C@@H]2CCOC2)C3)n1` [Compound 126] here?
Its EC50 is 58 nM.

With `CCOc1c(C(=O)O)cnn1-c1cccc(-c2cccc(C)c2OCc2ccc3c(c2C)CCN([C@@H]2CCCOC2)C3)n1` [Compound 128] as the compound, how does the EC50 read?
The EC50 was 15 nM.

How did the EC50 turn out when `CCOc1c(C(=O)O)cnn1-c1cccc(-c2cccc(C)c2OCc2ccc3c(c2C)CCN([C@H]2CCCOC2)C3)n1` [Compound 129] was run?
The EC50 was 17 nM.

With `COc1c(C(=O)O)cnn1-c1cccc(-c2cccc(C)c2OCc2ccc3c(c2)OCCN(C2CCOCC2)C3)n1` [Compound 130] as the compound, how does the EC50 read?
Its EC50 is 21 nM.

How did the EC50 turn out when `CCOc1c(C(=O)O)cnn1-c1cccc(-c2cccc(C)c2OCc2ccc3c(c2)OCCN(C2CCOCC2)C3)n1` [Compound 131] was run?
Its EC50 is 410 nM.

For `CCCOc1c(C(=O)O)cnn1-c1cccc(-c2cccc(C)c2OCc2ccc3c(c2C)CCN(C2CCOCC2)C3)n1` [Compound 133], which EC50 is on record?
Its EC50 is 27 nM.

Which EC50 does the source give for `Cc1cccc(-c2cccc(-n3ncc(C(=O)O)c3OCC(C)C)n2)c1OCc1ccc2c(c1C)CCN(C1CCOCC1)C2` [Compound 134] here?
The EC50 was 46 nM.

For `CC[C@H](C)Oc1c(C(=O)O)cnn1-c1cccc(-c2cccc(C)c2OCc2ccc3c(c2C)CCN(C2CCCOC2)C3)n1` (stereo partly shown) [Compound 135], which EC50 is on record?
Its EC50 is 54 nM.

For `CC[C@H](C)Oc1c(C(=O)O)cnn1-c1cccc(-c2cccc(C)c2OCc2ccc3c(c2C)CCN(C2CCOCC2)C3)n1` [Compound 136], which EC50 is on record?
Its EC50 is 81 nM.

Which EC50 does the source give for `CC[C@H](C)Oc1c(C(=O)O)cnn1-c1cccc(-c2cccc(C)c2OCc2ccc3c(c2C)CCN(C2CCOC2)C3)n1` (stereo partly shown) [Compound 137] here?
Its EC50 is 89 nM.

For `COc1c(C(=O)O)cnn1-c1cccc(-c2cccc(C)c2OCc2ccc3c(c2C)CCN(C[C@@H]2COCCO2)C3)n1` [Compound 139], which EC50 is on record?
Its EC50 is 8.4 nM.

For `COc1c(C(=O)O)cnn1-c1cccc(-c2cccc(C)c2OCc2ccc3c(c2C)CCN([C@@H]2CCCOC2)C3)n1` [Compound 140], which EC50 is on record?
The EC50 was 15 nM.
